The target of this assay is T1, interleukin-1β converting enzyme (ICE) (Homo sapiens, UniProt P29466).
T1 sequence (P29466 120-297 limits assumed): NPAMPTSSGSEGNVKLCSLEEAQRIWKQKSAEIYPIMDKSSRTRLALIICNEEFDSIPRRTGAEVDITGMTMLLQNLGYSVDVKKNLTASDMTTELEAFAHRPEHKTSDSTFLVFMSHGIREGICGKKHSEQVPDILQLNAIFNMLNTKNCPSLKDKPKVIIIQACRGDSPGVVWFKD
T1 sequence (P29466 317-404 limits assumed): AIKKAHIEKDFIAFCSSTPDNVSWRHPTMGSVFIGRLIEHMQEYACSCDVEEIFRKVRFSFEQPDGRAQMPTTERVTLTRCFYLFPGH
In words: Enzyme assay with UV-visible substrate (Succinyl-Tyr-Val-Ala-Asp-pNitroanilide). Type of assay: biochemical. As to the method:
1. Enzyme assay with UV-visible substrate
This assay is run using an Succinyl-Tyr-Val-Ala-Asp-pNitroanilide substrate (SEQ ID NO: 1). Synthesis of analogous substrates is described by L. A. Reiter (Int. J. Peptide Protein Res. 43, 87-96 (1994)). The assay mixture contains: […]
The visible ICE assay is run in a 96-well microtiter plate. Buffer, ICE and DMSO (if inhibitor is present) are added to the wells in the order listed. The components are left to incubate at room temperature for 15 minutes starting at the time that all components are present in all wells. The microtiter plate reader is set to incubate at 37° C. After the 15 minute incubation, substrate is added directly to the wells and the reaction is monitored by following the release of the chromophore (pNA) at 405-603 nm at 37° C. for 20 minutes. A linear fit of the data is performed and the rate is calculated in mOD/min. DMSO is only present during experiments involving inhibitors, buffer is used to make up the volume to 100 μl in the other experiments.
For determination of enzyme inhibition constants (Ki) or the mode of inhibition (competitive, uncompetitive or noncompetitive), the rate data determined in the enzyme assays at varying inhibitor concentrations are computer-fit to standard enzyme kinetic equations (see I. H. Segel, Enzyme Kinetics, Wiley-Interscience, 1975).

Each structure is given as a SMILES string. pKi: −log10 of the molar value.

Regarding `C[C@H](NC(=O)c1ncc[nH]1)C(=O)N[C@H](C=O)CC(=O)O` [Compound 20a, (3S)3-[N-(Imidazole-2-carbonyl)-L-alaninyl]amino-4-oxobutanoic acid], where the note is “Example 2 table”, the pKi is 5.49.

Take `Cc1c[nH]c2c(=O)n(CC(=O)N[C@H](C=O)CC(=O)O)cnc12` [Compound 43, (3S)-3-[2-(3,5-Dihydro-7-methyl-4-oxo-4H-pyrrolo[3,2-d]pyrimidin-3-yl)-1-oxo-ethylamino]-4-oxobutanoic acid]: the negative logarithm of the Ki (pKi) (Example 4 table) was 4.70.

Consider `O=C[C@H](CC(=O)O)NC(=O)CN1C(=O)[C@@H](NC(=O)CCc2ccccc2)CN(C(=O)CCc2ccccc2)c2ccccc21` [Compound 106b], for which, where the note is “Example 6 table”, the pKi was 6.70. For `C[C@H](NC(=O)c1ccc(Cc2ccccc2)[nH]1)C(=O)N[C@H](C=O)CC(=O)O` [Compound 36b, (3S)3-[N-(5-Benzylpyrrole-2-carbonyl)-L-alaninyl]amino-4-oxobutanoic acid], the pKi (Example 4 table) is 6.10. In turn, `O=CC(CC(=O)O)NC(=O)CN1C(=O)C(NC(=O)OCc2ccccc2)CN(Cc2ccccc2)C(=O)C1Cc1ccccc1` (centres unmarked) [Compound 121, 3-{2-[2,4-Dibenzyl-3,7-dioxo-6-(N-benzyloxycarbonylamino)-[1,4]diazepan-1-yl]-acetylamino}-4-oxo-butyric acid] gave a pKi (Example 6 table) of 5.37.

The values above are taken from patent publication US5716929A (Vertex Pharmaceuticals, Inc., priority 1995, dated 1998).
